Measured values: patent publication US20190218226A1, “PRODRUGS OF ANTICANCER AGENTS INDOTECAN AND INDIMITECAN” (Purdue Research Foundation, priority 2016, published 2019)

Tests used:
HOP-62 = assay: NCI60 antiproliferative screen, lung HOP-62; type: cell-based, human; details: HOP-62, 48 h, sulforhodamine B; read-out: Cytotoxicity (GI50) lung HOP-62
Outline: (§1)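 Cells were exposed to compound at 100, 10, 1, 0.1 and 0.01 μM for 48 h, then stained with sulforhodamine B and read by optical density. Percent growth versus control was plotted against log concentration, and GI50 was interpolated at 50% growth. Values outside 0.01–100 μM were set to those limits for the mean-graph midpoint.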

SF-539 = assay: NCI60 antiproliferative screen, CNS SF-539; type: cell-based, human; details: SF-539, 48 h, sulforhodamine B; read-out: Cytotoxicity (GI50) CNS SF-539
Outline: as §1

[1] = Stability of compound 17 in cell culture medium; type: physicochemical; details: 10 μM, cell-free RPMI 1640 medium, 37° C., after 99 hours
Procedure: In order to investigate the possibility that hydrolysis of the prodrugs takes place extracellularly rather than intracellularly, compound 17 was added to cell-free cell culture medium and the mixture was incubated at 37° C. Relatively slow conversion to the parent phenol 9 was observed, with 22% conversion after 99 hours.
Stability of Compound 17 in Cell Culture Medium.
RPMI 1640 medium was purchased from Sigma-Aldrich (St. Louis, Mo.). Compound 17 (10 μM) was incubated at 37° C. with RPMI 1640 medium. After 99 h, an aliquot was taken from the incubation mixture and filtered prior to analysis using LC-MS (Waters, Germany). The flow rate was 0.75 mL/min and the eluent was recorded with a DAD at 280 nm.

UACC-62 = assay: NCI60 antiproliferative screen, melanoma UACC-62; type: cell-based, human; details: UACC-62, 48 h, sulforhodamine B; read-out: Cytotoxicity (GI50) melanoma UACC-62
Outline: as §1

OVCAR-3 = assay: NCI60 antiproliferative screen, ovarian OVCAR-3; type: cell-based, human; details: OVCAR-3, 48 h, sulforhodamine B; read-out: Cytotoxicity (GI50) Ovarian OVCAR-3
Outline: as §1

COC(=O)CCC(=O)Oc1cc2c(=O)n(CCCN3CCOCC3)c3c(c2cc1OC)C(=O)c1cc2c(cc1-3)OCO2 [Compound 17, 2-Methoxy-6-(3-morpholinopropyl)-5,12-dioxo-6,12-dihydro-5H-[1,3]dioxolo[4′,5′:5,6]indeno[1,2-c]isoquinolin-3-yl Methyl Succinate]
GI50 (HOP-62): 16 nM | GI50 (SF-539): < 10 nM | conversion to the parent phenol 9 [1]: 22% | GI50 (UACC-62): 18 nM | GI50 (OVCAR-3): 37 nM
